Reference: patent US8058475B2, “Substituted cyclohexylmethyl compounds” (Gruenenthal GmbH, priority 2005, dated 2011)
Read-outs that look alike come from different tables or passages of the source.

Experiments:
human μ-opiate receptor = human μ-opiate receptor (Homo sapiens, UniProt P35372); test: Affinity for the human μ-opiate receptor ([3H]-naloxone displacement, SPA, CHO-K1 membrane preparation); assay type: binding; conditions: for inhibition at 1 µM: read-out: μ-Opioid receptor, % inhibition [1 μM]; for Ki: read-out: μ-Opioid receptor, Ki
Serotonin (5HT) reuptake = target: T1, Serotonin (5HT) reuptake (Rattus norvegicus, UniProt P31652); test: Serotonin (5HT) reuptake inhibition in rat brain synaptosomes (P2 fraction); assay type: biochemical; conditions: for inhibition at 10 µM: read-out: Serotonin reuptake, % inhibition [10 μM]
T1 construct: synaptosomes are freshly isolated from areas of rat brain; from tissue; host or cells: rat brain synaptosomes (P2 fraction)
From the text: (§1) Noradrenaline (NA) and Serotonin (5HT) Reuptake Inhibition
(§2) In order to be able to carry out these studies in vitro, synaptosomes are freshly isolated from areas of rat brain. A so-called “P2” fraction prepared by the method of Gray and Whittaker (E. G. Gray and V. P. Whittaker (1962) J. Anat. 76, 79-88) is used in each case. For the NA uptake, these vesicular particles are isolated from the hypothalamus of male rat brains.
(§3) A detailed description of the method will be found in the literature (M. Ch. Frink, H. H. Hennies, W. Englberger, M. Haurand and B. Wilffert (1996) Arzneim.-Forsch./Drug Res. 46 (III), 11, 1029-1036).

[1] = target: T2, Noradrenaline (NA) reuptake (Rattus norvegicus, UniProt Q63380); test: Noradrenaline (NA) reuptake inhibition in rat brain synaptosomes (hypothalamus, P2 fraction); assay type: biochemical; conditions: for inhibition at 10 µM: read-out: NA reuptake, % inhibition [10 μM]
T2 construct: synaptosomes are freshly isolated from areas of rat brain; from tissue; host or cells: rat hypothalamus synaptosomes (P2 fraction)
From the text: as §1, §2, §3

[2] = 1 μM test substance, inhibition of specific [3H]-naloxone binding
[3] = [3H]-naloxone, human μ-opiate receptor membranes

T2 sequence (Q63380 1-617): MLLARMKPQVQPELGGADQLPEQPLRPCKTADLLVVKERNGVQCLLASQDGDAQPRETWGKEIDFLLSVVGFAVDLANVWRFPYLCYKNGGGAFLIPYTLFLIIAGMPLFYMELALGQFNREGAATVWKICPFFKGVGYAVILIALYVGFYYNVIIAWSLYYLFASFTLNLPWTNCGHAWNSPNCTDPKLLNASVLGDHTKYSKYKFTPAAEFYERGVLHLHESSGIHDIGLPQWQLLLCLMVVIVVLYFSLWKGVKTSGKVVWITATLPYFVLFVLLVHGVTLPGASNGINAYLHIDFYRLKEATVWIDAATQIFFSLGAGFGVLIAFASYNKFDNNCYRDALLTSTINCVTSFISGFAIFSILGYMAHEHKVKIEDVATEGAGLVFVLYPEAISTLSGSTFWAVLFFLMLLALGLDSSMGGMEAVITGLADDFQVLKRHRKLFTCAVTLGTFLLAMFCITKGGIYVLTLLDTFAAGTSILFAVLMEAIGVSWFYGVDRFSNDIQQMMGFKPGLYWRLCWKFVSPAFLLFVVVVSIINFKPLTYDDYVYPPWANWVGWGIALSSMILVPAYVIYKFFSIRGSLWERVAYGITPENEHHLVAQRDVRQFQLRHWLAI
T1 sequence (P31652 whole entry): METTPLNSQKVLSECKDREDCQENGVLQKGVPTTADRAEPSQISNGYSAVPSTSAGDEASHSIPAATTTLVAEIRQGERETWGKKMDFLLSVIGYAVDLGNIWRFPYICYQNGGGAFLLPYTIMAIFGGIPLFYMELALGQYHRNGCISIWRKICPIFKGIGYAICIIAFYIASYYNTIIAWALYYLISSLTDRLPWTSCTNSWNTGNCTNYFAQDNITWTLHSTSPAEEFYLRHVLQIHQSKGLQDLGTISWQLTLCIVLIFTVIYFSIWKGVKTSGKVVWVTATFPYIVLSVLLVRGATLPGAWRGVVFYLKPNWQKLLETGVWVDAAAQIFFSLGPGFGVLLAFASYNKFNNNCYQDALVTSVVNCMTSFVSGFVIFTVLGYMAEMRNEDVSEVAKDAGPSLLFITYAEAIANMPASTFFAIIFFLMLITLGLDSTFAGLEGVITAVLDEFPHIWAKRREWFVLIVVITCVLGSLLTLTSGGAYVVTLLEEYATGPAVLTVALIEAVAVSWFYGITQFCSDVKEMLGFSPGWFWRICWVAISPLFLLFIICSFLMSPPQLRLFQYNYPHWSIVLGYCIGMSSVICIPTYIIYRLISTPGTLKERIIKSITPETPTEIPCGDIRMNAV
Sequence of human μ-opiate receptor (P35372 whole entry): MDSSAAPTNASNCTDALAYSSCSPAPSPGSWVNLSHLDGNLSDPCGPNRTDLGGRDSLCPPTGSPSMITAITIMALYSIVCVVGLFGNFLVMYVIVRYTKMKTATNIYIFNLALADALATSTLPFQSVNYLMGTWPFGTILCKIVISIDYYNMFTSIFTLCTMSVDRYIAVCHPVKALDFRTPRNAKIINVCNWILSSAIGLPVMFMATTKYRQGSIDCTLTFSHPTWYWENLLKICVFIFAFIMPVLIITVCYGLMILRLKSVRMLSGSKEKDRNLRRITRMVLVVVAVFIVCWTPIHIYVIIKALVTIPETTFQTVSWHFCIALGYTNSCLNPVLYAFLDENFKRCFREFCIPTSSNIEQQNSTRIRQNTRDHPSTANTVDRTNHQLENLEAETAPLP

CN(C)C(c1ccccc1)C1CCC(N)CC1 (stereo not shown) [compound 17, 4-(dimethylamino-phenyl-methyl)-cyclohexylamine]
inhibition at 1 µM (human μ-opiate receptor; [2]): 83% | Ki (human μ-opiate receptor; [3]): 440 nM | Ki (Serotonin (5HT) reuptake; rat brain synaptosomes, read-out: Serotonin reuptake, Ki): 860 nM | inhibition at 10 µM (Serotonin (5HT) reuptake): 86% | Ki ([1]; rat brain synaptosomes (hypothalamus), read-out: NA reuptake, Ki): 870 nM | inhibition at 10 µM [1]: 92%

CN(C)C(c1ccc(F)cc1)C1CCC(N)CC1 (stereo not shown) [compound 19, 4-[dimethylamino-(4-fluorophenyl)-methyl]-cyclohexylamine]
inhibition at 10 µM (Serotonin (5HT) reuptake): 87% | inhibition at 10 µM [1]: 93%

CN(C)C(c1cccc(F)c1)C1CCC(N)CC1 (stereo not shown) [compound 21, 4-[dimethylamino-(3-fluorophenyl)-methyl]-cyclohexylamine]
inhibition at 1 µM (human μ-opiate receptor; [2]): 48% | inhibition at 10 µM (Serotonin (5HT) reuptake): 80% | inhibition at 10 µM [1]: 90%

CN(C)C(c1ccc(Cl)cc1)C1CCC(N)CC1 (stereo not shown) [compound 23, 4-[(4-chlorophenyl)-dimethylamino-methyl]-cyclohexylamine]
inhibition at 1 µM (human μ-opiate receptor; [2]): 58% | inhibition at 10 µM (Serotonin (5HT) reuptake): 64% | inhibition at 10 µM [1]: 97%

CN(C)C(c1cccs1)C1CCC(N)CC1 (stereo not shown) [compound 25, 4-(dimethylamino-thiophen-2-yl-methyl)-cyclohexylamine]
inhibition at 1 µM (human μ-opiate receptor; [2]): 74% | Ki (human μ-opiate receptor; [3]): 260 nM | inhibition at 10 µM (Serotonin (5HT) reuptake): 71% | inhibition at 10 µM [1]: 84%

CN(C)C(CCc1ccccc1)C1CCC(N)CC1 (stereo not shown) [compound 27, 4-(1-dimethylamino-3-phenyl-propyl)-cyclohexylamine]
inhibition at 10 µM (Serotonin (5HT) reuptake): 78% | inhibition at 10 µM [1]: 95%

CN(C)C(c1ccccc1)C1CCC(C=O)CC1 (stereo not shown) [compound 28, 4-(Dimethylamino-phenyl-methyl)-cyclohexane-carbaldehyde]
inhibition at 1 µM (human μ-opiate receptor; [2]): 69% | inhibition at 10 µM (Serotonin (5HT) reuptake): 85% | inhibition at 10 µM [1]: 84%

CN(C)C(c1ccccc1)C1CCC(CN)CC1 (stereo not shown) [compound 30, [(4-aminomethyl-cyclohexyl)-phenyl-methyl]-dimethylamine]
inhibition at 1 µM (human μ-opiate receptor; [2]): 94% | Ki (human μ-opiate receptor): 210 nM | inhibition at 10 µM (Serotonin (5HT) reuptake): 89% | inhibition at 10 µM [1]: 89%

CN(C)C(c1ccc(F)cc1)C1CCC(CN)CC1 (stereo not shown) [compound 33, [(4-aminomethyl-cyclohexyl)-(4-fluorophenyl)-methyl]-dimethylamine]
inhibition at 10 µM (Serotonin (5HT) reuptake): 95% | inhibition at 10 µM [1]: 94%

CN(C)C(c1cccc(F)c1)C1CCC(C=O)CC1 (stereo not shown) [compound 34, 4-[Dimethylamino-(3-fluorophenyl)-methyl]-cyclohexane-carbaldehyde]
inhibition at 1 µM (human μ-opiate receptor; [2]): 34% | inhibition at 10 µM (Serotonin (5HT) reuptake): 87% | inhibition at 10 µM [1]: 87%

CN(C)C(c1cccc(F)c1)C1CCC(CN)CC1 (stereo not shown) [compound 36, [(4-aminomethyl-cyclohexyl)-(3-fluorophenyl)-methyl]-dimethylamine]
inhibition at 1 µM (human μ-opiate receptor; [2]): 68% | Ki (Serotonin (5HT) reuptake): 96 nM | inhibition at 10 µM (Serotonin (5HT) reuptake): 89% | Ki [1]: 110 nM | inhibition at 10 µM [1]: 93%

CN(C)C(c1ccc(Cl)cc1)C1CCC(C=O)CC1 (stereo not shown) [compound 37, 4-[(4-Chloro-phenyl)-dimethylamino-methyl]-cyclohexane-carbaldehyde]
inhibition at 10 µM (Serotonin (5HT) reuptake): 75% | inhibition at 10 µM [1]: 97%

CN(C)C(c1ccc(Cl)cc1)C1CCC(CN)CC1 (stereo not shown) [compound 39, [(4-aminomethyl-cyclohexyl)-(4-chlorophenyl)-methyl]-dimethylamine]
inhibition at 1 µM (human μ-opiate receptor; [2]): 56% | inhibition at 10 µM (Serotonin (5HT) reuptake): 87% | inhibition at 10 µM [1]: 97%

CN(C)C(c1cccs1)C1CCC(C=O)CC1 (stereo not shown) [compound 40, 4-(Dimethylamino-thiophen-2-yl-methyl)-cyclohexanecarbaldehyde]
inhibition at 10 µM (Serotonin (5HT) reuptake): 78% | inhibition at 10 µM [1]: 77%

CN(C)C(c1cccs1)C1CCC(CN)CC1 (stereo not shown) [compound 42, [(4-aminomethyl-cyclohexyl)-thiophen-2-yl-methyl]-dimethylamine]
inhibition at 1 µM (human μ-opiate receptor; [2]): 80% | Ki (human μ-opiate receptor; [3]): 240 nM | inhibition at 10 µM (Serotonin (5HT) reuptake): 86% | inhibition at 10 µM [1]: 83%

CN(C)C(CCc1ccccc1)C1CCC(C=O)CC1 (stereo not shown) [compound 43, 4-(1-Dimethylamino-3-phenyl-propyl)-cyclohexane-carbaldehyde]
inhibition at 10 µM (Serotonin (5HT) reuptake): 80% | inhibition at 10 µM [1]: 98%

CN(C)C(CCc1ccccc1)C1CCC(CN)CC1 (stereo not shown) [compound 45, [1-(4-aminomethyl-cyclohexyl)-3-phenyl-propyl]-dimethylamine]
inhibition at 10 µM (Serotonin (5HT) reuptake): 90% | inhibition at 10 µM [1]: 96%

CN(C)C(c1ccccc1)C1CCC(CC=O)CC1 (stereo not shown) [compound 46, [4-(Dimethylamino-phenyl-methyl)-cyclohexyl]-acetaldehyde]
inhibition at 1 µM (human μ-opiate receptor; [2]): 75% | inhibition at 10 µM (Serotonin (5HT) reuptake): 92% | inhibition at 10 µM [1]: 95%

CN(C)C(c1ccccc1)C1CCC(CCN)CC1 (stereo not shown) [compound 48]
μ-Opioid receptor, % inhibition [1 μM] (human μ-opiate receptor; [2]): 67% | Serotonin reuptake, % inhibition [10 μM] (Serotonin (5HT) reuptake; 10 μM, rat brain synaptosomes): 95% | NA reuptake, % inhibition [10 μM] ([1]; 10 μM, rat brain synaptosomes (hypothalamus)): 100%

CN(C)C(c1ccc(F)cc1)C1CCC(CC=O)CC1 (stereo not shown) [compound 49, {4-[Dimethylamino-(4-fluorophenyl)-methyl]-cyclohexyl}-acetaldehyde]
inhibition at 1 µM (human μ-opiate receptor; [2]): 34% | inhibition at 10 µM (Serotonin (5HT) reuptake): 93% | inhibition at 10 µM [1]: 97%

CN(C)C(c1ccc(F)cc1)C1CCC(CCN)CC1 (stereo not shown) [compound 51, 2-{4-[dimethylamino-(4-fluorophenyl)-methyl]-cyclohexyl}-ethylamine]
inhibition at 10 µM (Serotonin (5HT) reuptake): 97% | inhibition at 10 µM [1]: 98%

CN(C)C(c1cccc(F)c1)C1CCC(CC=O)CC1 (stereo not shown) [compound 52, {4-[Dimethylamino-(3-fluorophenyl)-methyl]-cyclohexyl}-acetaldehyde]
inhibition at 10 µM (Serotonin (5HT) reuptake): 94% | inhibition at 10 µM [1]: 96%

CN(C)C(c1cccc(F)c1)C1CCC(CCN)CC1 (stereo not shown) [compound 54, 2-{4-[dimethylamino-(3-fluorophenyl)-methyl]-cyclohexyl}-ethylamine]
inhibition at 1 µM (human μ-opiate receptor; [2]): 62% | inhibition at 10 µM (Serotonin (5HT) reuptake): 94% | inhibition at 10 µM [1]: 102%

CN(C)C(c1ccc(Cl)cc1)C1CCC(CC=O)CC1 (stereo not shown) [compound 55, {4-[(4-Chlorophenyl)-dimethylamino-methyl]-cyclohexyl}-acetaldehyde]
inhibition at 10 µM (Serotonin (5HT) reuptake): 88% | inhibition at 10 µM [1]: 95%

CN(C)C(c1ccc(Cl)cc1)C1CCC(CCN)CC1 (stereo not shown) [compound 66, 2-{4-[dimethylamino-(4-chlorophenyl)-methyl]-cyclohexyl}-ethylamine]
inhibition at 1 µM (human μ-opiate receptor; [2]): 62% | inhibition at 10 µM (Serotonin (5HT) reuptake): 96% | inhibition at 10 µM [1]: 96%

CN(C)C(c1cccs1)C1CCC(CC=O)CC1 (stereo not shown) [compound 67, {4-[Dimethylamino-thiophen-2-yl-methyl]-cyclohexyl}-acetaldehyde]
Ki (human μ-opiate receptor): 200 nM | inhibition at 10 µM (Serotonin (5HT) reuptake): 95% | inhibition at 10 µM [1]: 86%

CN(C)C(c1cccs1)C1CCC(CCN)CC1 (stereo not shown) [compound 69, 2-[4-(dimethylamino-thiophen-2-yl-methyl)-cyclohexyl]-ethylamine]
inhibition at 1 µM (human μ-opiate receptor; [2]): 61% | inhibition at 10 µM (Serotonin (5HT) reuptake): 83% | inhibition at 10 µM [1]: 98%

CN(C)C(CCc1ccccc1)C1CCC(CC=O)CC1 (stereo not shown) [compound 70, [4-(1-Dimethylamino-3-phenyl-propyl)-cyclohexyl]-acetaldehyde]
inhibition at 10 µM (Serotonin (5HT) reuptake): 70% | inhibition at 10 µM [1]: 93%

CN(C)C(CCc1ccccc1)C1CCC(CCN)CC1 (stereo not shown) [compound 72, {1-[4-(2-amino-ethyl)-cyclohexyl]-3-phenyl-propyl}-dimethylamine]
inhibition at 10 µM (Serotonin (5HT) reuptake): 79% | inhibition at 10 µM [1]: 91%

CCOC(=O)C=CC1CCC(C(CCc2ccccc2)N(C)C)CC1 (stereo not shown) [compound 141, 3-[4-(1-dimethylamino-3-phenyl-propyl)-cyclohexyl]-acrylic acid ethyl ester]
inhibition at 10 µM (Serotonin (5HT) reuptake): 83% | inhibition at 10 µM [1]: 98%

CCOC(=O)CCC1CCC(C(CCc2ccccc2)N(C)C)CC1 (stereo not shown) [compound 142, 3-[4-(1-dimethylamino-3-phenyl-propyl)-cyclohexyl]-propionic acid ethyl ester]
inhibition at 10 µM (Serotonin (5HT) reuptake): 84% | inhibition at 10 µM [1]: 99%

COc1cccc(NC(=O)CC2CCC(C(Cc3ccccc3)N3CCCC3)CC2)c1 (stereo not shown) [compound 492, N-(3-methoxyphenyl)-2-(4-(2-phenyl-1-(pyrrolidin-1-yl)ethyl)cyclohexyl)-acetamide]
inhibition at 10 µM (Serotonin (5HT) reuptake): 3% | inhibition at 10 µM [1]: 54%

COc1ccc(NC(=O)C=C2CCC(C(c3ccc(C)cc3)N3CCCCC3)CC2)cc1 (stereo not shown) [compound 493, N-(4-methoxyphenyl)-2-(4-(piperidin-1-yl(p-tolyl)methyl)cyclohexylidene)-acetamide]
inhibition at 10 µM (Serotonin (5HT) reuptake): 38% | inhibition at 10 µM [1]: 27%

Cc1ccc(C(C2CCC(=CC(=O)NCCc3ccccc3)CC2)N2CCCCC2)cc1 (stereo not shown) [compound 494, N-phenethyl-2-(4-(piperidin-1-yl(p-tolyl)methyl)cyclohexylidene)acetamide]
inhibition at 10 µM (Serotonin (5HT) reuptake): 40% | inhibition at 10 µM [1]: 81%

O=C(C=C1CCC(C(Cc2ccccc2)N2CCCC2)CC1)NCc1ccccn1 (stereo not shown) [compound 495, 2-(4-(2-phenyl-1-(pyrrolidin-1-yl)ethyl)cyclohexylidene)-N-(pyridin-2-ylmethyl)acetamide]
inhibition at 10 µM (Serotonin (5HT) reuptake): 7% | inhibition at 10 µM [1]: 16%

Cc1ccc(C(C2CCC(=CC(=O)N(C)Cc3ccccc3)CC2)N2CCCCC2)cc1 (stereo not shown) [compound 496, N-benzyl-N-methyl-2-(4-(piperidin-1-yl(p-tolyl)methyl)cyclohexylidene)-acetamide]
inhibition at 10 µM (Serotonin (5HT) reuptake): 18% | inhibition at 10 µM [1]: 26%
